According to patent publication US12421254B2, “KRAS modulators and uses thereof” (Quanta Therapeutics, Inc., priority 2023, dated 2025):

Key:
[1] = molecular target: GST-tagged KRAS-G12D (2-169) (Homo sapiens, UniProt P01116, G12D); assay: Nucleotide exchange assay (NEA), SOS-mediated, HTRF, KRAS G12D; type: biochemical; settings: Table 4; IC50 extracted at 30 min; 20 nM SOScat; read-out: NEA G12D IC50
Outline: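 SOS1cat-driven loading of fluorescent GTP-DY-647P1 (150 nM) onto GST-KRAS-G12D (2-169, 0.25 nM) read by time-resolved FRET; SOScat 20 nM, compound preincubated with KRAS 1 h at RT. Signal blanked to no-SOS reactions, normalized to DMSO; IC50 fitted from the 30-min read.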

[2] = molecular target: GST-tagged KRAS-G12V (2-169) (Homo sapiens, UniProt P01116, G12V); assay: Nucleotide exchange assay (NEA), SOS-mediated, HTRF, KRAS G12V; type: biochemical; settings: Table 4; IC50 extracted at 90 min; 80 nM SOS
Outline: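 Exchange onto fluorescent GTP-DY-647P1 (150 nM final) catalysed by 80 nM SOS1cat was followed by Tb-anti-GST HTRF at RT for up to 90 min, after 1 h compound pre-incubation with 0.25 nM GST-tagged KRAS-G12V (2-169), pH 7.3. DMSO = 0%, no-SOS blank = 100%; 4-parameter IC50 taken at 90 min.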

[3] = test system: phospho-ERK in SW620 (KRAS-G12V) cells; assay: pERK In Cell Western (ICW) assay (Method B), SW620; type: cell-based
Procedure: (§1) pERK ICW is a high throughput screening assay to evaluate the cellular potency of mutant KRAS small molecule inhibitors. KRAS mutant cell lines AGS, GP2D (KRAS-G12D) as well as SW620 (KRAS-G12V) were purchased from ATCC and maintained respectively in RPMI/DMEM/RPMI medium supplemented with 10% fetal bovine serum.
(§2) Cells grown in exponential phase were trypsinized, resuspended in fresh media, and viable cells were counted using a cell counter with Trypan Blue (BioRad TC20). Cells were seeded into 384-well plate (Greiner 781091) at density of 5,000 cells/well for AGS and 10,000 cells/well for GP2D/SW620 and allowed to grow overnight in a 37° C. CO2 incubator. The next day, compounds were dispensed into wells with a ½ log, 9-point serial dilution using a Tecan D300e dispenser and incubated for 3 hours in a 37° C. CO2 incubator. Cells were then fixed with paraformaldehyde (Electron Microscopy Sciences, 15710, 4% final concentration) for 30 min, permeabilized with wash buffer (1×PBS+0.1% Triton X-100) for 30 min and blocked with Odyssey blocking buffer (Li—COR 927-70001) for 1 hour, all at room temperature (RT). Phospho-ERK antibody (CST 4370L) was diluted 1:500 in Odyssey T20 (PBS) antibody diluent (Li—COR 927-75001) and incubated with cells overnight at 4° C. The next day, plates were washed 5× with wash buffer, incubated with IRDye 800 CW, Goat anti-Rabbit secondary antibody (Li—COR 926-32211, 1:800) and DRAQ5 (CST 4084L, 1:5,000) diluted in Odyssey T20 (PBS) antibody diluent for 1 hour, washed 5×, and imaged on an Odyssey CLx imaging system.
(§3) For data analysis, signal intensities from 800 (phosphor-ERK) and 700 (DRAQ5) channels were extracted, and phospho-ERK signals were normalized to DRAQ5 signals for each well and percent of blank control values were computed. Data were then imported into Graphpad Prism to compute half-maximal inhibitory concentrations (IC50) using a 4-parameter variable slope model. Z-factor for each plate was computed from signals derived from wells treated with either DMSO or 5 μM of control compound. AGS pERK ICW (Method B) IC50 (uM) values of selected compounds are depicted in Table 2 with compounds having a value ≥0.001 uM to 0.01 uM as ++++; ≥0.01 uM to 0.1 uM as +++; ≥0.1 uM to 1 uM as ++; ≥1 uM to 10 uM as + and ≥10 uM as NA.

[4] = test system: phospho-ERK in GP2D (KRAS-G12D) cells; assay: pERK In Cell Western (ICW) assay (Method B), GP2D; type: cell-based
Procedure: as §1, §2, §3

[5] = Homo sapiens, SW-620, 3 h, Table 4

Sequence of GST-tagged KRAS-G12V (2-169) (P01116 2-169 isoform P01116-2 G12V): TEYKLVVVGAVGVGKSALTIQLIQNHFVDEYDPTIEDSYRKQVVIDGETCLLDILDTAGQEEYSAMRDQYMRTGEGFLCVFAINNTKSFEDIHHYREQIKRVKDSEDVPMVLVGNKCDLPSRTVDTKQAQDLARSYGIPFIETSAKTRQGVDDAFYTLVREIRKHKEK
Sequence of GST-tagged KRAS-G12D (2-169) (P01116 2-169 isoform P01116-2 G12D): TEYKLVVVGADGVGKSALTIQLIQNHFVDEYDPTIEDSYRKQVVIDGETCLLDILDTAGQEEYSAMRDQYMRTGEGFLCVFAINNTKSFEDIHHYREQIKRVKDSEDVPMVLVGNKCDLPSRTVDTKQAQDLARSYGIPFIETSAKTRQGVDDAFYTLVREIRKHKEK

| Structure (SMILES) | IC50 [1] | IC50 [2] | IC50 [3, 5] | IC50 ([4]; GP2d, 3 h, Table 4) | IC50 ([3]; Table 4, 3 hours) | IC50 ([4]; Table 4, 3 hours) |
| --- | --- | --- | --- | --- | --- | --- |
| CCN(c1nc(OCC2CCC3C(=O)N(C)CCN23)nc(N2CC3(C2)SCc2sc(N)c(C#N)c23)n1)C(C)c1cccnc1N (mixture of isomers) [Compound 210, 1′-[4-[[(6SR,8aSR)-2-methyl-1-oxo-3,4,6,7,8,8a-hexahydropyrrolo[1,2-a]pyrazin-6-yl]methoxy]-6-[[(IR)-1-(2-amino-3-pyridyl)ethyl]-ethyl-amino]-1,3,5-triazin-2-yl]-2-amino-spiro[6H-thieno[3,4-b]thiophene-4,3′-azetidine]-3-carbonitrile] | < 10 nM | < 10 nM | 10 to 100 nM | 100 to 1000 nM |  |  |
| CCN(c1nc(OC[C@@H]2CC[C@H]3CN(C)CCN23)nc(N2CC3(C2)SCc2sc(N)c(C#N)c23)n1)[C@H](C)c1cccnc1N (mixture of isomers) [Compound 219, 1′-[4-[[(6SR,8aSR)-2-methyl-3,4,6,7,8,8a-hexahydro-1H-pyrrolo[1,2-a]pyrazin-6-yl]methoxy]-6-[[(1R)-1-(2-amino-3-pyridyl)ethyl]-ethyl-amino]-1,3,5-triazin-2-yl]-2-amino-spiro[6H-thieno[3,4-b]thiophene-4,3′-azetidine]-3-carbonitrile] | < 10 nM | < 10 nM | 10 to 100 nM | 100 to 1000 nM |  |  |
| C[C@]1(O)CN(c2nc(OC[C@@]34CCCN3C[C@H](F)C4)nc(N3CC4(CCc5sc(N)c(C#N)c54)C3)n2)CC[C@@H]1O (racemic) [Compound 62, 2-amino-1′-[4-[rac-(3S,4S)-3,4-dihydroxy-3-methyl-1-piperidyl]-6-[[(2R,8S)-2-fluoro-1,2,3,5,6,7-hexahydropyrrolizin-8-yl]methoxy]-1,3,5-triazin-2-yl]spiro[5,6-dihydrocyclopenta[b]thiophene-4,3′-azetidine]-3-carbonitrile] | 100 to 1000 nM | 100 to 1000 nM | ≥ 20000 nM | ≥ 20000 nM |  |  |
| N#Cc1c(N)sc2c1C1(CC2)CN(c2nc(OC[C@@]34CCCN3C[C@H](F)C4)nc(N3CCOCC(C#N)C3)n2)C1 (single isomer, unassigned) [Compound 91A, (6*)-4-[4-(2-amino-3-cyano-spiro[5,6-dihydrocyclopenta[b]thiophene-4,3′-azetidine]-1′-yl)-6-[[(2R,8S)-2-fluoro-1,2,3,5,6,7-hexahydropyrrolizin-8-yl]methoxy]-1,3,5-triazin-2-yl]-1,4-oxazepane-6-carbonitrile] | < 10 nM | < 10 nM |  | 100 to 1000 nM | 100 to 1000 nM |  |
| N#Cc1c(N)sc2c1C1(CC2)CN(c2nc(OC[C@@]34CCCN3C[C@H](F)C4)nc(N3CCOCC(C#N)C3)n2)C1 (single isomer, unassigned) [Compound 91B, (6*)-4-[4-(2-amino-3-cyano-spiro[5,6-dihydrocyclopenta[b]thiophene-4,3′-azetidine]-1′-yl)-6-[[(2R,8S)-2-fluoro-1,2,3,5,6,7-hexahydropyrrolizin-8-yl]methoxy]-1,3,5-triazin-2-yl]-1,4-oxazepane-6-carbonitrile] | < 10 nM | < 10 nM |  |  | 10 to 100 nM | 100 to 1000 nM |
| CC(c1cccnc1N)N(C)c1nc(OC[C@@]23CCCN2C[C@H](F)C3)nc(N2CC3(CCc4sc(N)c(C#N)c43)C2)n1 (single isomer, unassigned) [Compound 100A, 2-amino-1′-[4-[[(1*)-1-(2-amino-3-pyridyl)ethyl]-methyl-amino]-6-[[(2R,8S)-2-fluoro-1,2,3,5,6,7-hexahydropyrrolizin-8-yl]methoxy]-1,3,5-triazin-2-yl]spiro[5,6-dihydrocyclopenta[b]thiophene-4,3′-azetidine]-3-carbonitrile] | < 10 nM | < 10 nM | < 10 nM |  |  | 10 to 100 nM |
| CC(c1cccnc1N)N(C)c1nc(OC[C@@]23CCCN2C[C@H](F)C3)nc(N2CC3(CCc4sc(N)c(C#N)c43)C2)n1 (single isomer, unassigned) [Compound 100B, 2-amino-1′-[4-[[(1*)-1-(2-amino-3-pyridyl)ethyl]-methyl-amino]-6-[[(2R,8S)-2-fluoro-1,2,3,5,6,7-hexahydropyrrolizin-8-yl]methoxy]-1,3,5-triazin-2-yl]spiro[5,6-dihydrocyclopenta[b]thiophene-4,3′-azetidine]-3-carbonitrile] | 10 to 100 nM | < 10 nM |  |  | 10 to 100 nM | 100 to 1000 nM |
| CC(c1nccnc1N)N(C)c1nc(OC[C@@]23CCCN2C[C@H](F)C3)nc(N2CC3(CCc4sc(N)c(C#N)c43)C2)n1 (single isomer, unassigned) [Compound 116A, 2-amino-1′-[4-[[(1*)-1-(3-aminopyrazin-2-yl)ethyl]-methyl-amino]-6-[[(2R,8S)-2-fluoro-1,2,3,5,6,7-hexahydropyrrolizin-8-yl]methoxy]-1,3,5-triazin-2-yl]spiro[5,6-dihydrocyclopenta[b]thiophene-4,3′-azetidine]-3-carbonitrile] | < 10 nM | < 10 nM | 10 to 100 nM | 10 to 100 nM |  |  |
| C[C@@]1(O)CCCN(c2nc(OC[C@@]34CCCN3C[C@H](F)C4)nc(N3CC4(CCCc5sc(N)c(C#N)c54)C3)n2)C1 [Compound 30, 2-amino-1′-[4-[[(2R,8S)-2-fluoro-1,2,3,5,6,7-hexahydropyrrolizin-8-yl]methoxy]-6-[(3R)-3-hydroxy-3-methyl-1-piperidyl]-1,3,5-triazin-2-yl]spiro[6,7-dihydro-5H-benzothiophene-4,3′-azetidine]-3-carbonitrile] | 10 to 100 nM | 10 to 100 nM |  | 100 to 1000 nM |  |  |
| N#Cc1c(N)sc2c1C1(CC2)CN(c2nc(OC[C@@]34CCCN3C[C@H](F)C4)nc(N3CCc4noc(N)c4C3)n2)C1 [Compound 31, 2-amino-1′-[4-(3-amino-6,7-dihydro-4H-isoxazolo[4,3-c]pyridin-5-yl)-6-[[(2R,8S)-2-fluoro-1,2,3,5,6,7-hexahydropyrrolizin-8-yl]methoxy]-1,3,5-triazin-2-yl]spiro[5,6-dihydrocyclopenta[b]thiophene-4,3′-azetidine]-3-carbonitrile] | 10 to 100 nM | 100 to 1000 nM |  | 100 to 1000 nM |  |  |
| N#CNC1CCCN(c2nc(OC[C@@]34CCCN3C[C@H](F)C4)nc(N3CC4(CCc5sc(N)c(C#N)c54)C3)n2)C1 (stereo partly drawn) [Compound 33, [1-[4-(2-amino-3-cyano-spiro[5,6-dihydrocyclopenta[b]thiophene-4,3′-azetidine]-1′-yl)-6-[[(2R,8S)-2-fluoro-1,2,3,5,6,7-hexahydropyrrolizin-8-yl]methoxy]-1,3,5-triazin-2-yl]-3-piperidyl]cyanamide] | 10 to 100 nM | < 10 nM |  | 100 to 1000 nM |  |  |
| CN(C)CC1(COc2nc(N3CC4(CCc5sc(N)c(C#N)c54)C3)nc(N3CCC[C@@](C)(O)C3)n2)CC1(F)F (stereo partly drawn) [Compound 34, 2-amino-1′-[4-[[1-[(dimethylamino)methyl]-2,2-difluoro-cyclopropyl]methoxy]-6-[(3R)-3-hydroxy-3-methyl-1-piperidyl]-1,3,5-triazin-2-yl]spiro[5,6-dihydrocyclopenta[b]thiophene-4,3′-azetidine]-3-carbonitrile] | < 10 nM | < 10 nM |  | 10 to 100 nM |  |  |
| N#Cc1c(N)sc2c1C1(CN(c3nc(OCC4(CN5CCOCC5)CC4)nc(N4C[C@@H]5CC[C@@H](N5)C4CO)n3)C1)SC2 (stereo partly drawn) [Compound 188, 2′-amino-1-(4-((1R,5S)-2-(hydroxymethyl)-3,8-diazabicyclo[3.2.1]octan-3-yl)-6-((1-(morpholinomethyl)cyclopropyl)methoxy)-1,3,5-triazin-2-yl)-6′H-spiro[azetidine-3,4′-thieno[3,4-b]thiophene]-3′-carbonitrile] | < 10 nM | 10 to 100 nM |  | < 10 nM |  |  |
